pIC50: −log10 of the molar value.
The molecules below were run against T1, Tyrosine-protein kinase ITK/TSK (Homo sapiens, UniProt Q08881) (assay: ITK Target Modulation PLC-gamma Assay: Compounds were serially diluted into DMSO, and then into media to concentrations 10× that of the final assay concentration. Compounds were then added to the cells with the final assay DMSO concentration being 0.1%. Cells were incubated for 1 hour at 37° C. Following compound incubation, αCD3 Dynabeads were added at 1 bead/cell to each assay well and incubated at 37° C. for 7 minutes. Unstimulated control wells received media only. The plate was then placed on a 96-well magnetic plate for an additional 60 seconds (total assay stimulation time equals 8 minutes). The plate was then dumped and gently patted dry on a paper towel. 50 ul of complete Meso Scale Discovery (MSD) Lysis buffer was then added to each well. Samples were assayed for phospho-PLCγ1 using Meso Scale Discovery technology.).
T1 sequence (Q08881 whole entry): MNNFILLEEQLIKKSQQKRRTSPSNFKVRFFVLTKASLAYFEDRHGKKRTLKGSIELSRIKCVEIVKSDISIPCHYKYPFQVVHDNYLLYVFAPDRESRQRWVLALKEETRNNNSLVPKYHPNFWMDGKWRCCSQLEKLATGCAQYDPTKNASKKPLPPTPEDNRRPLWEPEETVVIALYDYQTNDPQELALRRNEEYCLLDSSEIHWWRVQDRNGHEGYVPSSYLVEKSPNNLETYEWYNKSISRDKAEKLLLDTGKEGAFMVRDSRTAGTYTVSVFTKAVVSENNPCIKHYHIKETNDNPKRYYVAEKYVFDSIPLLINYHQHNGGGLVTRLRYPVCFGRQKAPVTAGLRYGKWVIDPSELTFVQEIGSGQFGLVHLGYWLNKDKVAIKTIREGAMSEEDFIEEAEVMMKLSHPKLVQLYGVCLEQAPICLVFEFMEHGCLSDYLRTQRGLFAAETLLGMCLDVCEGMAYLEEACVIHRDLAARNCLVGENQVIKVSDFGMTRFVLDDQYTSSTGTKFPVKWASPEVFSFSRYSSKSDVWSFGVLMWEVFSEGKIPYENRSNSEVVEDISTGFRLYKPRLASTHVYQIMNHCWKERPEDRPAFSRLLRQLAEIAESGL

Compound | pIC50
C=CC(=O)Nc1cccc(-c2cnc3[nH]cc(-c4ccnc5ccccc45)c3c2)c1 | 5.30 to 6.00
C=CC(=O)Nc1cccc(-c2cnc3[nH]cc(-c4cccc5[nH]ccc45)c3c2)c1 | 5.30 to 6.00
C=CC(=O)Nc1cc(-c2cnc3[nH]cc(-c4ccc(OC)nc4)c3c2)cc(C(F)(F)F)c1 | 5.30 to 6.00
C=CC(=O)Nc1cc(-c2cnc3[nH]cc(-c4ccncc4)c3c2)cc(C(F)(F)F)c1 | > 6.00
C=CC(=O)Nc1cccc(-c2cnc3[nH]cc(-c4ccc(=O)n(CC5CC5)c4)c3c2)c1 | > 6.00
C=CC(=O)Nc1cccc(-c2cnc3[nH]cc(-c4cc(NC)ncn4)c3c2)c1 | 5.30 to 6.00
C=CC(=O)Nc1cccc(-c2cnc3[nH]cc(-c4ccccc4C)c3c2)c1 | 5.30 to 6.00
C=CC(=O)Nc1cccc(-c2cnc3[nH]cc(-c4cccc5ncccc45)c3c2)c1 | 5.30 to 6.00
C=CC(=O)Nc1cccc(-c2cnc3[nH]cc(-c4ccncn4)c3c2)c1 | > 6.00
C=CC(=O)Nc1cccc(-c2cnc3[nH]cc(-c4cn(CC5CC5)c(=O)c5[nH]ccc45)c3c2)c1 | 5.30 to 6.00
C=CC(=O)Nc1cccc(-c2cnc3[nH]cc(-c4cccc5occc45)c3c2)c1 | < 5.30
C=CC(=O)Nc1cc(-c2cnc3[nH]cc(-c4ccnc(OC)c4)c3c2)cc(C(O)(CC)CC)c1 | 5.30 to 6.00
C=CC(=O)Nc1cc(-c2cnc3[nH]cc(-c4ccnc(OC)c4)c3c2)cc(-c2cnn(C)c2)c1 | > 6.00
C=CC(=O)Nc1cc(OC)cc(-c2cnc3[nH]cc(-c4ccncc4)c3c2)c1 | > 6.00

Other lines, results leading:

pIC50 | Compound
5.30 to 6.00 | C=CC(=O)Nc1cccc(-c2cnc3[nH]cc(-c4cccc(OC)c4)c3c2)c1
> 6.00 | C=CC(=O)Nc1cccc(-c2cnc3[nH]cc(-c4ccnc(F)c4)c3c2)c1
5.30 to 6.00 | C=CC(=O)Nc1cccc(-c2cnc3[nH]cc(-c4cc(C)nc(OC)c4)c3c2)c1
5.30 to 6.00 | C=CC(=O)Nc1cccc(-c2cnc3[nH]cc(-c4cccc(C#N)c4)c3c2)c1
> 6.00 | C=CC(=O)Nc1cccc(-c2cnc3[nH]cc(-c4ccnc(NC)c4)c3c2)c1
> 6.00 | C=CC(=O)Nc1cccc(-c2cnc3[nH]cc(-c4ccnc(NC)n4)c3c2)c1
5.30 to 6.00 | Cc1cc(-c2c[nH]c3ncc(-c4cccc(/C=C(\C#N)C(N)=O)c4)cc23)ccn1

Each molecule was assayed against T1, Tyrosine-protein kinase ITK/TSK (assay: ITK Inhibitor Binding Kinetics: This assay is based on the binding of a proprietary, Alexa Fluor 647-labeled, ATP-competitive kinase inhibitor (kinase tracer-236) to the ITK expression construct in the presence of a Europium-conjugated antibody, resulting in a FRET (fluorescence resonance energy transfer) signal. Displacement of the kinase tracer by compound results in a lower emission ratio upon excitation of the Europium chelate. Candidate compounds are designed as potential irreversible inhibitors of ITK, capable of ligating to an active site cysteine residue resulting in time dependent covalent binding. The time dependent nature of irreversible inhibition is investigated by performing the binding assay with and without a pre-incubation of compound and ITK.).

Compound | pIC50
C=CC(=O)Nc1cccc(-c2cnc3[nH]cc(-c4cncc(Cl)c4)c3c2)c1 | > 6.00
C=CC(=O)NC1CN(c2cnc3[nH]cc(-c4ccnc(C#N)c4)c3c2)C1 | > 6.00
C=CC(=O)Nc1cccc(-c2cnc3[nH]cc(-c4cncc5[nH]ccc45)c3c2)c1 | > 6.00
C=CC(=O)Nc1cncc(-c2cnc3[nH]cc(-c4cn(C)c(=O)c5[nH]ccc45)c3c2)c1 | > 6.00
C=CC(=O)Nc1cccc(-c2cnc3[nH]cc(-c4ccc(=O)n(CC(C)(C)O)c4)c3c2)c1 | > 6.00
C=CC(=O)Nc1cccc(-c2cnc3[nH]cc(-c4cccc5cnccc45)c3c2)c1 | > 6.00
C=CC(=O)Nc1cc(-c2cnc3[nH]cc(-c4ccnc(F)c4)c3c2)cc(C(F)(F)F)c1 | > 6.00
C=CC(=O)Nc1cccc(-c2cnc3[nH]cc(-c4cc(C)cc(OC)n4)c3c2)c1 | > 6.00
C=C(C)C(=O)Nc1cc(-c2cnc3[nH]cc(-c4ccnc(OC)c4)c3c2)cc(-c2cnn(C)c2)n1 | > 6.00
C=CC(=O)Nc1cccc(-c2cnc3[nH]cc(-c4cc(OC)nc(C(F)(F)F)c4)c3c2)c1 | < 6.00
C=CC(=O)Nc1cc(-c2cnc3[nH]cc(-c4ccc(F)nc4)c3c2)cc(C(F)(F)F)c1 | > 6.00
C=CC(=O)Nc1cccc(-c2cnc3[nH]cc(-c4ccc(=O)n(C)c4)c3c2)c1 | > 6.00
C=CC(=O)Nc1cc(-c2cnc3[nH]cc(-c4cccnc4)c3c2)cc(C(F)(F)F)c1 | > 6.00
C=CC(=O)Nc1cccc(-c2cnc3[nH]cc(-c4ccnc5[nH]ccc45)c3c2)c1 | > 6.00
C=CC(=O)Nc1cccc(-c2cnc3[nH]cc(-c4cc(OC)ncc4C)c3c2)c1 | > 6.00
C=CC(=O)Nc1cccc(-c2cnc3[nH]cc(-c4cccc5ccccc45)c3c2)c1 | > 6.00

Continued, values first:

pIC50 | Compound
> 6.00 | COC/C=C/C(=O)Nc1cccc(-c2cnc3[nH]cc(-c4ccnc(OC)c4)c3c2)c1
> 6.00 | C=CC(=O)Nc1cccc(-c2cnc3[nH]cc(-c4cccnc4)c3c2)c1
> 6.00 | N#C/C(=C\c1cccc(-c2cnc3[nH]cc(-c4ccncn4)c3c2)c1)C(N)=O
> 6.00 | COc1cc(/C=C(\C#N)C(N)=O)cc(-c2cnc3[nH]cc(-c4ccnc(OC)c4)c3c2)c1
> 6.00 | C=CC(=O)Nc1cccc(-c2cnc3[nH]cc(-c4ccnc(C)c4)c3c2)c1
> 6.00 | C=CC(=O)Nc1cccc(-c2cnc3[nH]cc(-c4ccc(OCC5CC5)nc4)c3c2)c1
> 6.00 | C=CC(=O)Nc1cccc(-c2cnc3[nH]cc(-c4cc(C)ncn4)c3c2)c1
> 6.00 | N#C/C(=C\c1cccc(-c2cnc3[nH]cc(-c4ccc(F)nc4)c3c2)c1)C(N)=O
> 6.00 | C=CC(=O)Nc1cc(C#N)cc(-c2cnc3[nH]cc(-c4ccncc4)c3c2)c1
> 6.00 | C=CC(=O)Nc1cccc(-c2cnc3[nH]cc(-c4ccc(OC)nc4)c3c2)c1
> 6.00 | C=CC(=O)Nc1cccc(-c2cnc3[nH]cc(-c4ccc(F)nc4)c3c2)c1
> 6.00 | C=CC(=O)Nc1cccc(-c2cnc3[nH]cc(-c4ccc(NC)nc4)c3c2)c1
